According to US11077209B2, “Use of cerebral nitric oxide donors in the assessment of the extent of brain dysfunction following injury” (OXFORD UNIVERSITY INNOVATION LIMITED, priority 2016, dated 2021):
Where two headings read alike, the source gives them in different places.

What was measured:
[1] = test system: patients after severe aneurysmal SAH (WFNS grade 3, 4 or 5); conditions: for percentage change in ADR, median: (during infusion-baseline)/baseline x100; for mean percentage change from baseline ADR over time, FIG. 3: after commencement of the nitrite infusion
Text: Patients aged 18-80 years admitted to the Neurosciences Intensive Care Unit (NICU) at the John Radcliffe Hospital, Oxford after having suffered severe aneurysmal SAH (WFNS grade 3, 4 or 5 at time of presentation) were eligible for inclusion in the study. There were no specific selection criteria apart from grade of SAH, and the absence of any exclusion criteria (see below).
Following definitive endovascular aneurysm treatment, each patient underwent a two hour period of continuous EEG monitoring (Porti 7 system, Twente Medical Systems International) on one occasion as soon as was practically possible after endovascular securing of the aneurysm.
(§1) Sedative drug levels, muscle relaxants and vasopressors were documented and changes in infusion rates were minimised for the duration of the recording.
We used a simplified EEG montage that aimed for compromise between stable maintenance of recording and full coverage of all vascular territories. Consequently, 7-13 unipolar EEG electrodes (depending on the presence of external ventricular drains and intracranial pressure (ICP) monitors) at the following positions defined according to the international 10-20 system: Cz, Fz, Pz, Fp1, Fp2, F3, F4, P3, P4, T3, T4, O1, O2. EEG data were digitized at a sampling rate of 2048 Hz, with a high pass filter of 0.5 Hz and a low pass filter of 30 Hz.
Each surviving patient was followed up at three to six months post-rupture. Telephone follow up was performed for patients who were unable to attend hospital due to their clinical status. Primary outcome was measured by the presence or absence of delayed ischemia. Long term outcome was assessed by modified Rankin scale at 3 months, via structured standardised questions in person or by telephone. The modified Rankin scale, is a commonly used grading system that measures the degree of disability or dependence in the daily activities of people who have suffered a neurological insult. Good outcome is defined as a score of 0-2, whereas poor outcome is defined as ≥3.
Inc.) code and the EEGLAB v13.4.3b analysis toolbox. Datasets were re-referenced to the average of bilateral mastoid reference electrodes and band pass filtered from 0.5 to 15 Hz using a linear finite impulse response (FIR) filter. Each EEG recording was visually inspected and artefacts were manually removed. Channels showing evidence of excessive amounts of noise were removed from each recording.
Spectral analysis was carried out using FieldTrip, a MATLAB software toolbox for EEG analysis. Data was windowed into 30-second segments that overlapped by 50%. Time-frequency analysis was performed using a multi-taper spectral estimation using discrete prolate spheroidal (Slepian) sequences with 14 tapers, and fast Fourier transform algorithm for each electrode channel. Five 60-second epochs were selected randomly from the first (baseline) and last thirty minutes of the recording (during infusion). The epochs were separated by at least 60 seconds to avoid autocorrelation. The corresponding frequency distribution in each epoch was identified, which enabled determination of power values in the following frequency bands: delta 1-4 Hz, alpha 8-12 Hz and total low frequency power 1-15 Hz.
Statistical analysis was carried out using R and the analysis package nlme. We applied a two level linear mixed effects multilevel model to the data to allow for within patient correlation due to repeated measures on each patient over time. […] A qqnorm plot was used to identify any outliers and these were subsequently eliminated from the model. Goodness of fit was assessed via Shapiro-Wilk normality tests on fixed and random effect residuals, and calculation of R^2 for the model.

[2] = test system: patients after severe aneurysmal SAH (WFNS grade 3, 4 or 5)
Description: as §1
The patients also underwent simultaneous transcranial Doppler (TCD) monitoring. Insonation of the MCA M1 segment was performed unilaterally on the side with the best window using colour-coded duplex ultrasound (EZ-Dop, DWL; 2 Mz probe).
The patient's PETCO2, end-tidal O2, ABP and SpO2 were recorded continuously and collected on a Power-1401 data acquisition interface (Cambridge Electronic Design). […] Arterial CO2 values were collected once during the duration of the recording as part of routine clinical care.
Waveform analysis was performed using custom written MATLAB code, enabling calculation of average pre and during infusion values for TCD middle cerebral artery velocity (MCAV) ABP, PETCO2, end-tidal O2 and ICP.

With `O=NO` [sodium nitrite] the “percentage change in ADR, median” value ([1]; good outcome group) was “increases”, the “mean percentage change from baseline ADR over time, FIG. 3” value ([1]; good outcome group) was “increases” and the “ADR during infusion, median” value ([1]; good outcome group, baseline median 0.03) was 0.05. The “delta power response to a 1-hour infusion (discussion)” value ([1]; patients with good outcome) was “significant increase”, the “percentage change in ADR, median” value ([1]; poor outcome group) was “no significant differences” and the “mean percentage change from baseline ADR over time, FIG. 3” value ([1]; poor outcome group) was “does not change”. For the same compound, the “baseline versus during infusion ADR” value ([1]; poor outcome patients (mRS >=3)) was “no significant differences”, the “mean MAP in response to sodium nitrite” value ([2]; 14 patients, from a mean MAP of 87 mmHg, p=0.026) was 84 mmHg and the “change in TCD, MCAV as a result of sodium nitrite infusion” value ([2]; pre versus during infusion) was “no significant changes”. The “change in ICP as a result of sodium nitrite infusion” value ([2]; pre versus during infusion, 10 patients) was “no significant changes” and the “change in end tidal CO2 as a result of sodium nitrite infusion” value ([2]; pre versus during infusion, 13 patients) was “no significant changes”.
